One compound from BindingDB's records for patent US20230271964 (AstraZeneca, 2023) can be followed below.

Experiment [1] addresses T1, Adenosine receptor A1 (Homo sapiens, UniProt P30542).
T1 sequence (P30542 whole entry): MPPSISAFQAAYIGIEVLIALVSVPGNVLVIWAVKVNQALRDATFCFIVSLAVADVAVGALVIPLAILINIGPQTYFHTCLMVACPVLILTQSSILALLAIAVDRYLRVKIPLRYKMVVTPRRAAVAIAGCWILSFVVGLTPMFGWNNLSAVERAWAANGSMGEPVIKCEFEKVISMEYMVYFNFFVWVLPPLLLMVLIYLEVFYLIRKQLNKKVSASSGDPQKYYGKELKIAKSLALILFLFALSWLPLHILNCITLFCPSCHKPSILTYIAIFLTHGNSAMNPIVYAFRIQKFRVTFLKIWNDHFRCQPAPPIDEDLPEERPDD
Nature of the experiment: Adenosine Receptor Binding Assay. As to the method:
(§1) Inhibition binding assays were performed using 0.2 µg of membranes prepared from HEK293 cells infected with BacMam human adenosine A2A receptor or 1.4 µg of membranes prepared from HEK293 cells infected with BacMam human adenosine A1 receptor. Membranes were incubated in 50 mM Tris-HCl (HEK293-hA2A; pH 7.4) or 50 mM Tris-HCl, 100 mM NaCl, 10 mM MgCl2 (CHO-hA1; pH 7.4) in the presence of varying concentrations of test compound and 1 nM [3H]ZM241385 (HEK293-hA2A) or [3H]DPCPX (CHO-hA1) at 25° C. for 1 h. The assay was then terminated by rapid filtration onto GF/B grade Unifilter plates using a TomTec cell harvester, followed by 5 × 0.5 ml washes with ddH2O. […] Bound radioactivity was determined by liquid scintillation counting and inhibition curves were analysed using a four-parameter logistic equation. IC50 values were converted to Ki values with the Cheng-Prusoff equation using a KD value derived from saturation binding studies.

In experiment [2] the target is Adenosine receptor A2a (Homo sapiens, UniProt P29274). Put plainly: Adenosine Receptor Binding Assay. How it is done: as §1

As a reminder, the Ki is the dissociation constant of the complex between target and ligand, obtained from inhibition or displacement. A higher Ki goes with weaker binding.

SMILES strings stand for the structures.

Chain of Adenosine receptor A2a (P29274 whole entry): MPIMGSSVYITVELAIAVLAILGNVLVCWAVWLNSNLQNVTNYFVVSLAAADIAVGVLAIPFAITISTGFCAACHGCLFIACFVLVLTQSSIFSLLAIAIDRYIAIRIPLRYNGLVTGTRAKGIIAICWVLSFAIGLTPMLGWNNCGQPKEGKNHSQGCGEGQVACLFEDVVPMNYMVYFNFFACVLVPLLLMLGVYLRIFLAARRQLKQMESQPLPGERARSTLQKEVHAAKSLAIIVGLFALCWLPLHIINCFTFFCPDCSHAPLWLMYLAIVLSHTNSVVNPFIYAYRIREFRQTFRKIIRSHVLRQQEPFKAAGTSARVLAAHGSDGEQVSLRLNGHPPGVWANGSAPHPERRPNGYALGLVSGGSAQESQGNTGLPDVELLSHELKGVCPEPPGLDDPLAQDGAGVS

As to `Cc1cc(-c2c(-c3ccccc3)nc(N)n3c(=O)n(Cc4ncc[nH]4)nc23)cc(C)n1` [US20230271964, Example 1-24], the Ki amounted to 25.1 nM in experiment [1] and 0.631 nM in experiment [2].
